{
  "source": "patent US20080293696A1",
  "about": "“2-Aminoarylcarboxamides Useful as Cancer Chemotherapeutic Agents” (Bayer Pharmaceuticals Corporation, priority 2004, published 2008)",
  "note": "Counter-ions that a name gives are not always drawn.",
  "data": [
    {"tested_on": "PAKT/PKB (p-(S473) AKT) in H209 small cell lung carcinoma cells stimulated with Stem Cell Factor", "experiment": "PAKT/PKB Cytoblot Assay with H209 cells (SCF-stimulated p-(S473) AKT)", "format": "cell-based", "details": "Homo sapiens, NCI-H209, compound 1 hour, SCF 25 ng/mL 5 minutes, group: between 500 nM and 1 μM (units in value)", "protocol": "(§1) PAKT/PKB Cytoblot Assay Protocol with H209 Cells\n(§2) H209 small cell lung carcinoma cells in log phase were plated at 50,000 cells/well in 96-well poly-lysine coated, clear bottom/black-sided plates (BD Cat # 354640) in 100 μl RPMI medium containing 0.1% (w/v) BSA, and incubated overnight at 37° C. in 5% CO2 incubator. The following day, compounds (10 mM stock solutions in DMSO) were added to the plates to generate final concentrations of 0.0, 0.01, 0.03, 0.1, 0.3, 1.0, 3.0 and 10 μM for IC50 determinations and incubated for 1 hour at 37° C. Cells were then left untreated or stimulated with Stem Cell Factor (SCF: Biosource Cat # PHC2116) at a final concentration of 25 ng/mL for 5 minutes at 37° C. in 5% CO2 incubator. The media was then removed using a vacuum manifold and the cells were washed once with Tris Buffered Saline (TBS).\n(§3) Cells were then fixed by adding 200 μl of cold 3.7% (v/v) formaldehyde in TBS to each well for 15 minutes at 4° C. After removal of the formaldehyde, the cells were treated with the addition of 50 μl of methanol (at −20° C.) to each well for 5 minutes. After removal of the methanol, […] of 1% (w/v) BSA in TBS was added to each well to block non-specific antibody binding sites and the plate was incubated at room temperature for 30 minutes.\n(§4) After removal of the blocking buffer, 50 μl of p-(S473) AKT rabbit polyclonal antibody (Cell Signaling Cat # 9277S) was added at a dilution of 1:250 in 0.1% (w/v) BSA in TBS, and the plate was incubated at room temperature for 1 hour. Plates were then washed 3 times with cold TBS containing 0.05% (v/v) Tween 20 (TBS-T) and […] of Horseradish peroxidase (HRP)-conjugated goat-anti-rabbit antibody (Amersham Cat # NA934V) at a dilution of 1:250 in TBS-T was added and the plate was incubated at room temperature for 1 h. After washing with ice-cold TBS-T four times, 100 μl of Enhanced Chemiluminescence (ECL) reagent (Amersham Cat# RPN2209) was added to each well and mixed on a mini-orbital shaker for 1 min. The plate was then read on a Perkin Elmer Victor 5 Multilabel Counter (#1420-0421).", "units": {"IC50": "µM"}, "values": [
      {"smiles": "CCNC(=O)c1cc(CNc2cc(F)c(F)cc2C(=O)Nc2ccc3c(c2)OC(F)(F)C(F)(F)O3)ccn1", "note": "[Example 43, 4-{[(4,5-difluoro-2-{[(2,2,3,3-tetrafluoro-2,3-dihydro-1,4-benzodioxin-6-yl)amino]carbonyl}phenyl)amino]methyl}-N-ethylpyridine-2-carboxamide]", "IC50": "0.5 to 1"},
      {"smiles": "O=C(NCCCN1CCCCC1)c1cc(CNc2ccccc2C(=O)Nc2ccc3c(c2)OC(F)(F)O3)ccn1", "note": "[Example 98, 4-{[(2-{[(2,2-difluoro-1,3-benzodioxol-5-yl)amino]carbonyl}phenyl)amino]methyl}-N-(3-piperidin-1-ylpropyl)pyridine-2-carboxamide]", "IC50": "0.5 to 1"}
    ]},
    {"tested_on": "PAKT/PKB (p-(S473) AKT) in H209 small cell lung carcinoma cells stimulated with Stem Cell Factor", "experiment": "PAKT/PKB Cytoblot Assay with H209 cells (SCF-stimulated p-(S473) AKT)", "format": "cell-based", "details": "Homo sapiens, NCI-H209, compound 1 hour, SCF 25 ng/mL 5 minutes, group: between 1 and 3 μM", "protocol": "as §1, §2, §3, §4", "units": {"IC50": "µM"}, "values": [
      {"smiles": "CN(CCCNC(=O)c1cc(CNc2ccccc2C(=O)Nc2ccc3c(c2)OC(F)(F)O3)ccn1)c1ccccc1", "note": "[Example 107, 4-{[(2-{[(2,2-difluoro-1,3-benzodioxol-5-yl)amino]carbonyl}phenyl)amino]methyl}-N-{3-[methyl(phenyl)amino]propyl}pyridine-2-carboxamide]", "IC50": "1 to 3"},
      {"smiles": "Cc1cccc(CNC(=O)Nc2cc(CNc3ccccc3C(=O)Nc3ccc4c(c3)OC(F)(F)O4)ccn2)c1", "note": "[Example 171, N-(2,2-difluoro-1,3-benzodioxol-5-yl)-2-({[2-({[(3-methylbenzyl)amino]carbonyl}amino)pyridin-4-yl]methyl}amino)benzamide]", "IC50": "1 to 3"},
      {"smiles": "CC(C)C[C@H](CO)NC(=O)c1cc(CNc2ccccc2C(=O)Nc2ccc3c(c2)OC(F)(F)O3)ccn1", "note": "[Example 109, 4-{[(2-{[(2,2-difluoro-1,3-benzodioxol-5-yl)amino]carbonyl}phenyl)amino]methyl}-N-[1-(hydroxymethyl)-3-methylbutyl]pyridine-2-carboxamide]", "IC50": "1 to 3"},
      {"smiles": "N#Cc1cc(CNc2cc(F)c(F)cc2C(=O)Nc2ccc3c(c2)OC(F)(F)O3)ccn1", "note": "[Example 36, 2-{[(2-cyanopyridin-4-yl)methyl]amino}-N-(2,2-difluoro-1,3-benzodioxol-5-yl)-4,5-difluorobenzamide]", "IC50": "1 to 3"},
      {"smiles": "O=C(NC1CCN(Cc2ccccc2)C1)c1cc(CNc2ccccc2C(=O)Nc2ccc3c(c2)OC(F)(F)O3)ccn1", "note": "(centres unmarked) [Example 118, N-(1-benzylpyrrolidin-3-yl)-4-{[(2-{[(2,2-difluoro-1,3-benzodioxol-5-yl)amino]carbonyl}phenyl)amino]methyl}pyridine-2-carboxamide]", "IC50": "1 to 3"},
      {"smiles": "N#Cc1cccc(NC(=O)Nc2cc(CNc3ccccc3C(=O)Nc3ccc4c(c3)OC(F)(F)O4)ccn2)c1", "note": "[Example 166, 2-({[2-({[(3-cyanophenyl)amino]carbonyl}amino)pyridin-4-yl]methyl}amino)-N-(2,2-difluoro-1,3-benzodioxol-5-yl)benzamide]", "IC50": "1 to 3"},
      {"smiles": "CCOc1cc(CCNC(=O)c2cc(CNc3ccccc3C(=O)Nc3ccc4c(c3)OC(F)(F)O4)ccn2)ccc1OC", "note": "[Example 126, 4-{[(2-{[(2,2-difluoro-1,3-benzodioxol-5-yl)amino]carbonyl}phenyl)amino]methyl}-N-[2-(3-ethoxy-4-methoxyphenyl)ethyl]pyridine-2-carboxamide]", "IC50": "1 to 3"}
    ]},
    {"tested_on": "PAKT/PKB (p-(S473) AKT) in H209 small cell lung carcinoma cells stimulated with Stem Cell Factor", "experiment": "PAKT/PKB Cytoblot Assay with H209 cells (SCF-stimulated p-(S473) AKT)", "format": "cell-based", "details": "Homo sapiens, NCI-H209, compound 1 hour, SCF 25 ng/mL 5 minutes, group: less than 500 nM", "protocol": "as §1, §2, §3, §4", "units": {"IC50": "µM"}, "values": [
      {"smiles": "CS(=O)(=O)Nc1cc(CNc2ccccc2C(=O)Nc2ccc3c(c2)OC(F)(F)O3)ccn1", "note": "[Example 175, N-(2,2-difluoro-1,3-benzodioxol-5-yl)-2-[({2-[(methylsulfonyl)amino]pyridin-4-yl}methyl)amino]benzamide]", "IC50": "< 0.5"},
      {"smiles": "COCC(=O)Nc1cc(CNc2ccccc2C(=O)Nc2ccc3c(c2)OC(F)(F)O3)ccn1", "note": "[Example 155, N-(2,2-difluoro-1,3-benzodioxol-5-yl)-2-[({2-[(methoxyacetyl)amino]pyridin-4-yl}methyl)amino]benzamide]", "IC50": "< 0.5"},
      {"smiles": "CCOC(=O)CCC(=O)N(C(=O)CCC(=O)OCC)c1cc(CNc2ccccc2C(=O)Nc2ccc3c(c2)OC(F)(F)O3)ccn1", "note": "[Example 158, diethyl 4,4′-[(4-{[(2-{[(2,2-difluoro-1,3-benzodioxol-5-yl)amino]carbonyl}phenyl)amino]methyl}pyridin-2-yl)imino]bis(4-oxobutanoate)]", "IC50": "< 0.5"},
      {"smiles": "O=C(NCC(O)CO)c1cc(CNc2ccccc2C(=O)Nc2ccc3c(c2)OC(F)(F)O3)ccn1", "note": "(centres unmarked) [Example 79, 4-{[(2-{[(2,2-Difluoro-1,3-benzodioxol-5-yl)amino]carbonyl}phenyl)amino]methyl}-N-(2,3-dihydroxypropyl)pyridine-2-carboxamide]", "IC50": "< 0.5"},
      {"smiles": "O=C(NCc1ccncc1)c1cc(CNc2ccccc2C(=O)Nc2ccc3c(c2)OC(F)(F)O3)ccn1", "note": "[Example 104, 4-{[(2-{[(2,2-difluoro-1,3-benzodioxol-5-yl)amino]carbonyl}phenyl)amino]methyl}-N-(pyridin-4-ylmethyl)pyridine-2-carboxamide]", "IC50": "< 0.5"},
      {"smiles": "COC(=O)COCC(=O)Nc1cc(CNc2ccccc2C(=O)Nc2ccc3c(c2)OC(F)(F)O3)ccn1", "note": "[Example 157]", "IC50": "< 0.5"},
      {"smiles": "CCOCCCNC(=O)c1cc(CNc2ccccc2C(=O)Nc2ccc3c(c2)OC(F)(F)O3)ccn1", "note": "[Example 110, 4-{[(2-{[(2,2-difluoro-1,3-benzodioxol-5-yl)amino]carbonyl}phenyl)amino]methyl}-N-(3-ethoxypropyl)pyridine-2-carboxamide]", "IC50": "< 0.5"},
      {"smiles": "N#Cc1cc(CNc2ccccc2C(=O)Nc2ccc3c(c2)OC(F)(F)C(F)(F)O3)ccn1", "note": "[Example 22, 2-{[(2-cyanopyridin-4-yl)methyl]amino}-N-(2,2,3,3-tetrafluoro-2,3-dihydro-1,4-benzodioxin-6-yl)benzamide]", "IC50": "< 0.5"},
      {"smiles": "COCCCNc1cc(CNc2ccccc2C(=O)Nc2ccc3c(c2)OC(F)(F)O3)ccn1", "note": "[Example 136, N-(2,2-difluoro-1,3-benzodioxol-5-yl)-2-[({2-[(3-methoxypropyl)amino]pyridin-4-yl}methyl)amino]benzamide trifluoroacetate]", "IC50": "< 0.5"},
      {"smiles": "CC(C)OCCCNC(=O)c1cc(CNc2ccccc2C(=O)Nc2ccc3c(c2)OC(F)(F)O3)ccn1", "note": "[Example 111, 4-{[(2-{[(2,2-difluoro-1,3-benzodioxol-5-yl)amino]carbonyl}phenyl)amino]methyl}-N-(3-isopropoxypropyl)pyridine-2-carboxamide]", "IC50": "< 0.5"},
      {"smiles": "CNc1cc(CNc2ccccc2C(=O)Nc2ccc3c(c2)OC(F)(F)O3)ccn1", "note": "[Example 139, N-(2,2-difluoro-1,3-benzodioxol-5-yl)-2-({[2-(methylamino)pyridin-4-yl]methyl}amino)benzamide trifluoroacetate]", "IC50": "< 0.5"},
      {"smiles": "O=C(NCCO)c1cc(CNc2ccccc2C(=O)Nc2ccc3c(c2)OC(F)(F)O3)ccn1", "note": "[Example 91, 4-{[(2-{[(2,2-difluoro-1,3-benzodioxol-5-yl)amino]carbonyl}phenyl)amino]methyl}-N-(2-hydroxyethyl)pyridine-2-carboxamide]", "IC50": "< 0.5"},
      {"smiles": "COC(=O)c1cc(CNc2ccccc2C(=O)Nc2ccc3c(c2)OC(F)(F)O3)ccn1", "note": "[Example 76, methyl 4-{[(2-{[(2,2-difluoro-1,3-benzodioxol-5-yl)amino]-carbonyl}phenyl)amino]methyl}pyridine-2-carboxylate]", "IC50": "< 0.5"},
      {"smiles": "CN(C)CCCCCNC(=O)c1cc(CNc2ccccc2C(=O)Nc2ccc3c(c2)OC(F)(F)O3)ccn1", "note": "[Example 100, 4-{[(2-{[(2,2-difluoro-1,3-benzodioxol-5-yl)amino]carbonyl}phenyl)amino]methyl)-N-[5-(dimethylamino)pentyl]pyridine2-carboxamide]", "IC50": "< 0.5"}
    ]}
  ]
}
